{"source": "ChEMBL document CHEMBL1146814", "about": "“Amidine derived 1,3-diazabuta-1,3-dienes as potential antibacterial and antifungal agents” (2004)", "key": {"Candida albicans [1]": {"test_system": "Candida albicans", "test": "Antifungal activity against Candida albicans MTCC 183 measured through zone of inhibition; Inactive", "assay_type": "functional, organism-based"}, "Pseudomonas aeruginosa [2]": {"test_system": "Pseudomonas aeruginosa", "test": "Antibacterial activity against Pseudomonas aeruginosa MTCC 1034. measured through zone of inhibition; Inactive", "assay_type": "functional, organism-based"}, "Escherichia coli [3]": {"test_system": "Escherichia coli", "test": "Antibacterial activity against Escherichia coli MTCC 42 measured through zone of inhibition; Inactive", "assay_type": "functional, organism-based"}, "Staphylococcus aureus [4]": {"test_system": "Staphylococcus aureus", "test": "Antibacterial activity against Staphylococcus aureus MTCC 1430 measured through zone of inhibition; Inactive", "assay_type": "functional, organism-based"}, "Bacillus cereus [5]": {"test_system": "Bacillus cereus", "test": "Antibacterial activity against Bacillus cereus MTCC 1272 measured through zone of inhibition; Inactive", "assay_type": "functional, organism-based"}, "Bacillus subtilis [6]": {"test_system": "Bacillus subtilis", "test": "Antibacterial activity against Bacillus subtilis MTCC 121 measured through zone of inhibition; Inactive", "assay_type": "functional, organism-based"}, "Aspergillus niger [7]": {"test_system": "Aspergillus niger", "test": "Antifungal activity against Aspergillus niger MTCC 404 measured through zone of inhibition; Inactive", "assay_type": "functional, organism-based"}, "Candida albicans [8]": {"test_system": "Candida albicans", "test": "Antifungal activity against Candida albicans MTCC 183 measured through zone of inhibition; inactive", "assay_type": "functional, organism-based"}, "Bacillus cereus [9]": {"test_system": "Bacillus cereus", "test": "Antibacterial activity against Bacillus cereus MTCC 1272 measured through zone of inhibition; 16-20 mm", "assay_type": "functional"}, "Staphylococcus aureus [10]": {"test_system": "Staphylococcus aureus", "test": "Antibacterial activity against Staphylococcus aureus MTCC 1430 measured through zone of inhibition; 16-20 mm", "assay_type": "functional"}, "Escherichia coli [11]": {"test_system": "Escherichia coli", "test": "Antibacterial activity against Escherichia coli MTCC 42 measured through zone of inhibition; 21-25 mm", "assay_type": "functional"}, "Aspergillus niger [12]": {"test_system": "Aspergillus niger", "test": "Antifungal activity against Aspergillus niger MTCC 404 measured through zone of inhibition; inactive", "assay_type": "functional, organism-based"}, "Pseudomonas aeruginosa [13]": {"test_system": "Pseudomonas aeruginosa", "test": "Antibacterial activity against Pseudomonas aeruginosa MTCC 1034. measured through zone of inhibition; 16-20 mm", "assay_type": "functional"}, "Bacillus subtilis [14]": {"test_system": "Bacillus subtilis", "test": "Antibacterial activity against Bacillus subtilis MTCC 121 measured through zone of inhibition; 16-20 mm", "assay_type": "functional"}, "Aspergillus niger [15]": {"test_system": "Aspergillus niger", "test": "Antifungal activity against Aspergillus niger MTCC 404 measured through zone of inhibition; 11-15 mm", "assay_type": "functional"}, "Staphylococcus aureus [16]": {"test_system": "Staphylococcus aureus", "test": "Antibacterial activity against Staphylococcus aureus MTCC 1430 measured through zone of inhibition; 11-15 mm", "assay_type": "functional"}, "Bacillus subtilis [17]": {"test_system": "Bacillus subtilis", "test": "Antibacterial activity against Bacillus subtilis MTCC 121 measured through zone of inhibition; 21-25 mm", "assay_type": "functional"}, "Candida albicans [18]": {"test_system": "Candida albicans", "test": "Antifungal activity against Candida albicans MTCC 183 measured through zone of inhibition; 11-15 mm", "assay_type": "functional"}, "Bacillus cereus [19]": {"test_system": "Bacillus cereus", "test": "Antibacterial activity against Bacillus cereus MTCC 1272 measured through zone of inhibition; 21-25 mm", "assay_type": "functional"}, "Staphylococcus aureus [20]": {"test_system": "Staphylococcus aureus", "test": "Antibacterial activity against Staphylococcus aureus MTCC 1430 measured through zone of inhibition; 21-25 mm", "assay_type": "functional"}, "Pseudomonas aeruginosa [21]": {"test_system": "Pseudomonas aeruginosa", "test": "Antibacterial activity against Pseudomonas aeruginosa MTCC 1034. measured through zone of inhibition; 21-25 mm", "assay_type": "functional"}, "Bacillus cereus [22]": {"test_system": "Bacillus cereus", "test": "Antibacterial activity against Bacillus cereus MTCC 1272 measured through zone of inhibition; 11-15 mm", "assay_type": "functional"}, "Candida albicans [23]": {"test_system": "Candida albicans", "test": "Antifungal activity against Candida albicans MTCC 183 measured through zone of inhibition; 16-20 mm", "assay_type": "functional"}}, "note": "Activity calls are given as the source filed them. No cut-off for these calls is given here.", "data": [{"smiles": "C[S+](C)[O-]", "values": [{"measurement": "Zone of inhibition", "setting": "Candida albicans [1]", "value": "inactive"}, {"measurement": "Zone of inhibition", "setting": "Pseudomonas aeruginosa [2]", "value": "inactive"}, {"measurement": "Zone of inhibition", "setting": "Escherichia coli [3]", "value": "inactive"}, {"measurement": "Zone of inhibition", "setting": "Staphylococcus aureus [4]", "value": "inactive"}, {"measurement": "Zone of inhibition", "setting": "Bacillus cereus [5]", "value": "inactive"}, {"measurement": "Zone of inhibition", "setting": "Bacillus subtilis [6]", "value": "inactive"}, {"measurement": "Zone of inhibition", "setting": "Aspergillus niger [7]", "value": "inactive"}]}, {"smiles": "CS/C(=N\\C(=N\\c1ccccc1)c1ccccc1)N1CCCCC1", "values": [{"measurement": "Zone of inhibition", "setting": "Candida albicans [8]", "value": "inactive"}, {"measurement": "Zone of inhibition", "setting": "Bacillus cereus [9]", "value": 16, "unit": "mm"}, {"measurement": "Zone of inhibition", "setting": "Staphylococcus aureus [10]", "value": 16, "unit": "mm"}, {"measurement": "Zone of inhibition", "setting": "Escherichia coli [11]", "value": 25, "unit": "mm"}, {"measurement": "Zone of inhibition", "setting": "Aspergillus niger [12]", "value": "inactive"}, {"measurement": "Zone of inhibition", "setting": "Pseudomonas aeruginosa [13]", "value": 16, "unit": "mm"}, {"measurement": "Zone of inhibition", "setting": "Bacillus subtilis [14]", "value": 16, "unit": "mm"}]}, {"smiles": "CCS/C(=N\\C(=N\\c1ccc(C)cc1)c1ccccc1)N1CCCCC1", "values": [{"measurement": "Zone of inhibition", "setting": "Candida albicans [1]", "value": "inactive"}, {"measurement": "Zone of inhibition", "setting": "Bacillus cereus [9]", "value": 16, "unit": "mm"}, {"measurement": "Zone of inhibition", "setting": "Aspergillus niger [15]", "value": 11, "unit": "mm"}, {"measurement": "Zone of inhibition", "setting": "Escherichia coli [11]", "value": 21, "unit": "mm"}, {"measurement": "Zone of inhibition", "setting": "Staphylococcus aureus [16]", "value": 11, "unit": "mm"}, {"measurement": "Zone of inhibition", "setting": "Bacillus subtilis [17]", "value": 21, "unit": "mm"}, {"measurement": "Zone of inhibition", "setting": "Pseudomonas aeruginosa [13]", "value": 16, "unit": "mm"}]}, {"smiles": "CCS/C(=N\\C(=N\\c1ccccc1)c1ccccc1)N1CCCCC1", "values": [{"measurement": "Zone of inhibition", "setting": "Candida albicans [18]", "value": 11, "unit": "mm"}, {"measurement": "Zone of inhibition", "setting": "Bacillus cereus [19]", "value": 21, "unit": "mm"}, {"measurement": "Zone of inhibition", "setting": "Staphylococcus aureus [20]", "value": 21, "unit": "mm"}, {"measurement": "Zone of inhibition", "setting": "Escherichia coli [11]", "value": 21, "unit": "mm"}, {"measurement": "Zone of inhibition", "setting": "Aspergillus niger [12]", "value": "inactive"}, {"measurement": "Zone of inhibition", "setting": "Pseudomonas aeruginosa [13]", "value": 16, "unit": "mm"}, {"measurement": "Zone of inhibition", "setting": "Bacillus subtilis [14]", "value": 16, "unit": "mm"}]}, {"smiles": "CS/C(=N\\C(=N\\c1ccc(Cl)cc1)c1ccccc1)N1CCCCC1", "values": [{"measurement": "Zone of inhibition", "setting": "Pseudomonas aeruginosa [21]", "value": 21, "unit": "mm"}, {"measurement": "Zone of inhibition", "setting": "Bacillus cereus [22]", "value": 11, "unit": "mm"}, {"measurement": "Zone of inhibition", "setting": "Candida albicans [18]", "value": 11, "unit": "mm"}, {"measurement": "Zone of inhibition", "setting": "Staphylococcus aureus [10]", "value": 16, "unit": "mm"}, {"measurement": "Zone of inhibition", "setting": "Aspergillus niger [15]", "value": 11, "unit": "mm"}, {"measurement": "Zone of inhibition", "setting": "Escherichia coli [11]", "value": 21, "unit": "mm"}, {"measurement": "Zone of inhibition", "setting": "Bacillus subtilis [14]", "value": 16, "unit": "mm"}]}, {"smiles": "CCCCS/C(=N\\C(=N\\c1ccc(C)cc1)c1ccccc1)N1CCCCC1", "values": [{"measurement": "Zone of inhibition", "setting": "Pseudomonas aeruginosa [21]", "value": 21, "unit": "mm"}, {"measurement": "Zone of inhibition", "setting": "Bacillus cereus [9]", "value": 16, "unit": "mm"}, {"measurement": "Zone of inhibition", "setting": "Staphylococcus aureus [20]", "value": 21, "unit": "mm"}, {"measurement": "Zone of inhibition", "setting": "Aspergillus niger [15]", "value": 11, "unit": "mm"}, {"measurement": "Zone of inhibition", "setting": "Escherichia coli [11]", "value": 21, "unit": "mm"}, {"measurement": "Zone of inhibition", "setting": "Candida albicans [23]", "value": 16, "unit": "mm"}, {"measurement": "Zone of inhibition", "setting": "Bacillus subtilis [14]", "value": 16, "unit": "mm"}]}, {"smiles": "O=C(O)c1cn(C2CC2)c2cc(N3CCNCC3)c(F)cc2c1=O", "note": "[CIPROFLOXACIN]", "values": [{"measurement": "Zone of inhibition", "setting": "Bacillus cereus [9]", "value": 16, "unit": "mm"}, {"measurement": "Zone of inhibition", "setting": "Staphylococcus aureus [20]", "value": 21, "unit": "mm"}, {"measurement": "Zone of inhibition", "setting": "Escherichia coli [11]", "value": 21, "unit": "mm"}, {"measurement": "Zone of inhibition", "setting": "Bacillus subtilis [17]", "value": 21, "unit": "mm"}, {"measurement": "Zone of inhibition", "setting": "Pseudomonas aeruginosa [13]", "value": 16, "unit": "mm"}]}, {"smiles": "CS/C(=N\\C(=N\\c1ccc(C)cc1)c1ccccc1)N1CCCCC1", "values": [{"measurement": "Zone of inhibition", "setting": "Candida albicans [1]", "value": "inactive"}, {"measurement": "Zone of inhibition", "setting": "Bacillus cereus [9]", "value": 16, "unit": "mm"}, {"measurement": "Zone of inhibition", "setting": "Staphylococcus aureus [20]", "value": 21, "unit": "mm"}, {"measurement": "Zone of inhibition", "setting": "Escherichia coli [11]", "value": 21, "unit": "mm"}, {"measurement": "Zone of inhibition", "setting": "Pseudomonas aeruginosa [13]", "value": 16, "unit": "mm"}, {"measurement": "Zone of inhibition", "setting": "Aspergillus niger [7]", "value": "inactive"}, {"measurement": "Zone of inhibition", "setting": "Bacillus subtilis [14]", "value": 16, "unit": "mm"}]}]}
